From patent US10954216B2, “BMP-signal-inhibiting compound” (RIKEN, priority 2016, dated 2021) come the findings set out here.

Each structure is given as a SMILES string.

The test system of the first assay is BMP signal in MDA-231-D-BREFluc/Rluc cells. The assay is described as follows: BMP signal inhibitory effect (AlphaScreen SureFire SMAD1 p-Ser463/465, BMP-6 stimulation). In kind it is cell-based.
Conditions: not given
The method in brief: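 Read-out was phospho-SMAD1 (Ser463/465) by AlphaScreen SureFire after 30 min BMP-6 stimulation at 37° C. Before stimulation, MDA-231-D-BREFluc/Rluc cells were incubated with test compound at 37° C for 2 h.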
(In Alpha technology, singlet oxygen from a donor bead excites a nearby acceptor bead.)
Consider `CCn1cc(-c2ccnc(Nc3ccc(C(=O)N4CC5CCC(C4)N5C)cc3)n2)c(-c2cccnc2)n1` [Example 117, (4-((4-(1-Ethyl-3-(pyridin-3-yl)-1H-pyrazol-4-yl)pyrimidin-2-yl)amino)phenyl) (8-methyl-3,8-diazabicyclo [3.2.1]octan-3-yl)methanone], for which 0.012 µM corresponded to half-maximal inhibition (IC50). For the molecule `CCn1cc(-c2ccnc(Nc3ccc(C(=O)N4CC5CCC(C4)N5C4CCCC4)cc3)n2)c(-c2cccnc2)n1` [Example 118, (8-Cyclopentyl-3,8-diazabicyclo [3.2.1]octan-3-yl) (4-((4-(1-ethyl-3-(pyridin-3-yl)-1H-pyrazol-4-yl)pyrimidin-2-yl)amino)phenyl) methanone], the half-maximal inhibitory concentration (IC50) is 0.0086 µM. The same measure, in the same setting: as for `CCn1cc(-c2ccnc(Nc3ccc(OC4CC5CCC(C4)N5)cc3)n2)c(-c2cccnc2)n1` (centres unmarked) [Example 146, N-(4-((8-Azabicyclo[3.2.1]octan-3-yl)oxy)phenyl)-4-(1-ethyl-3-(pyridin-3-yl)-1H-pyrazol-4-yl)pyrimidin-2-amine], the figure is 0.0135 µM.

Still in this assay, the particulars now being: BMP-6 stimulated MDA-231-D-BREFluc/Rluc cells, phospho-SMAD1 AlphaScreen; read-out: IC50.
As for `COCC(O)CN1CCN(c2ccc(Nc3nccc(-c4cn(CC(C)(C)O)nc4-c4cccnc4)n3)cc2)CC1` (centres unmarked) [Example 111, 1-(4-(2-((4-(4-(2-Hydroxy-3-methoxypropyl)piperazin-1-yl)phenyl)amino)pyrimidin-4-yl)-3-(pyridin-3-yl)-1H-pyrazol-1-yl)-2-methylpropan-2-ol], the IC50 was found to be 0.0273 µM.

Consider `CCn1cc(-c2ccnc(Nc3ccc(CCN4CCN(C)CC4)cc3)n2)c(-c2cccnc2)n1` [Example 112, 4-(1-ethyl-3-(pyridin-3-yl)-1H-pyrazol-4-yl)-N-(4-(2-(4-methylpiperazin-1-yl)ethyl)phenyl)pyrimidin-2-amine], for which the IC50 was 0.0117 µM. On the same count and under the same terms, the result for `CCn1cc(-c2ccnc(Nc3ccc(C4CCCN(C)C4)cc3)n2)c(-c2cccnc2)n1` (centres unmarked) [Example 113, 4-(1-Ethyl-3-(pyridin-3-yl)-1H-pyrazol-4-yl)-N-(4-(1-methylpiperidin-3-yl)phenyl)pyrimidin-2-amine] reads 0.008 µM. On the same count and under the same terms, as for `CCn1cc(-c2ccnc(Nc3cccc(C4CCN(C)CC4)c3)n2)c(-c2cccnc2)n1` [Example 114, 4-(1-Ethyl-3-(pyridin-3-yl)-1H-pyrazol-4-yl)-N-(3-(1-methylpiperidin-4-yl)phenyl)pyrimidin-2-amine], the figure is 0.0009 µM. The same measure, in the same setting: the result for `CCn1cc(-c2ccnc(Nc3ccc4c(c3)CCN(C)CC4)n2)c(-c2cccnc2)n1` [Example 115, N-(4-(1-Ethyl-3-(pyridin-3-yl)-1H-pyrazol-4-yl)pyrimidin-2-yl)-3-methyl-2,3,4,5-tetrahydro-1H-benzo [d] azepin-7-amine] reads 0.0011 µM. Turning to `CCn1cc(-c2ccnc(Nc3ccc(C(=O)N4CCN(C)CC4)cc3)n2)c(-c2cccnc2)n1` [Example 116, (4-((4-(1-Ethyl-3-(pyridin-3-yl)-1H-pyrazol-4-yl)pyrimidin-2-yl)amino)phenyl)(4-methylpiperazin-1-yl)methanone], the 50% inhibitory concentration (IC50) came out at 0.0151 µM. Same read-out and setting: as for `CCn1cc(-c2ccnc(Nc3ccc(C(=O)N4CCN(C(C)C)CC4)cc3)n2)c(-c2cccnc2)n1` [Example 119, (4-((4-(1-Ethyl-3-(pyridin-3-yl)-1H-pyrazol-4-yl)pyrimidin-2-yl)amino)phenyl) (4-isopropylpiperazin-1-yl)methanone], the figure is 0.005 µM. On the same count and under the same terms, the result for `CCn1cc(-c2ccnc(Nc3ccc(C(=O)N4CCN(C5CCCCC5)CC4)cc3)n2)c(-c2cccnc2)n1` [Example 120, (4-Cyclohexylpiperazin-1-yl) (4-((4-(1-ethyl-3-(pyridin-3-yl)-1H-pyrazol-4-yl)pyrimidin-2-yl)amino)phenyl) methanone] reads 0.0061 µM; that for `CC(C)N1CCN(C(=O)c2ccc(Nc3nccc(-c4cn(Cc5ccc(F)cc5)nc4-c4cccnc4)n3)cc2)CC1` [Example 121, (4-((4-(1-(4-Fluorobenzyl)-3-(pyridin-3-yl)-1H-pyrazol-4-yl)pyrimidin-2-yl)amino)phenyl)(4-isopropylpiperazin-1-yl)methanone], 0.0196 µM. With `CCn1cc(-c2ccnc(Nc3cccc(C(=O)N4CCN(C(C)C)CC4)c3)n2)c(-c2cccnc2)n1` [Example 122, (3-((4-(1-Ethyl-3-(pyridin-3-yl)-1H-pyrazol-4-yl)pyrimidin-2-yl)amino)phenyl)(4-isopropylpiperazin-1-yl)methanone], the half-inhibitory concentration (IC50) is 0.0236 µM. In the case of `CC(C)N1CCN(C(=O)c2ccc(Nc3nccc(-c4cn(CCc5ccccc5)nc4-c4cccnc4)n3)cc2)CC1` [Example 123, (4-lsopropylpiperazin-1-yl) (4-((4-(1-phenethyl-3-(pyridin-3-yl)-1H-pyrazol-4-yl)pyrimidin-2-yl)amino)phenyl) methanone], the IC50 turned out to be 0.0126 µM. As for `CCn1cc(-c2ccnc(Nc3ccc4c(c3)CCN(C3COC3)CC4)n2)c(-c2cccnc2)n1` [Example 125, N-(4-(1-Ethyl-3-(pyridin-3-yl)-1H-pyrazol-4-yl)pyrimidin-2-yl)-3-(oxetan-3-yl)-2,3,4,5-tetrahydro-1H-benzo [d] azepin-7-amine], the IC50 amounted to 0.01 µM. In the case of `CCn1cc(-c2ccnc(Nc3cnn(C4CCN(C5COC5)CC4)c3)n2)c(-c2cccnc2)n1` [Example 128, 4-(1-Ethyl-3-(pyridin-3-yl)-1H-pyrazol-4-yl)-N-(1-(1-(oxetan-3-yl)piperidin-4-yl)-1H-pyrazol-4-yl)pyrimidin-2-amine], the half-maximal inhibitory concentration (IC50) amounted to 0.032 µM.

With `CCn1cc(-c2ccnc(Nc3ccc(N4CCN(C5CCOCC5)CC4)cc3)n2)c(-c2cccnc2)n1` [Example 130, 4-(1-Ethyl-3-(pyridin-3-yl)-1H-pyrazol-4-yl)-N-(4-(4-(tetrahydro-2H-pyran-4-yl)piperazin-1-yl)phenyl)pyrimidin-2-amine], the half-maximal inhibitory concentration (IC50) was 0.0124 µM.

Turning to `CC(C)(O)Cn1cc(-c2ccnc(Nc3ccc4c(c3)CCN(C3COC3)C4)n2)c(-c2cccnc2)n1` [Example 131, 2-Methyl-1-(4-(2-((2-(oxetan-3-yl)-1,2,3,4-tetrahydroisoquinolin-6-yl)amino)pyrimidin-4-yl)-3-(pyridin-3-yl)-1H-pyrazol-1-yl)propan-2-ol], the concentration for half-maximal inhibition (IC50) was found to be 0.0167 µM. The same measure, in the same setting: the result for `CC(C)(O)Cn1cc(-c2ccnc(Nc3ccc(C4CCN(C5COC5)CC4)cc3)n2)c(-c2cccnc2)n1` [Example 132] reads 0.0249 µM; that for `CCn1cc(-c2ccnc(Nc3ccc(-c4cccnc4)cc3)n2)c(-c2cccnc2)n1` [Example 133, 4-(1-ethyl-3-(pyridin-3-yl)-1H-pyrazol-4-yl)-N-(4-(pyridin-3-yl)phenyl)pyrimidin-2-amine], 0.0187 µM; that for `CCn1cc(-c2ccnc(Nc3ccc(-c4ccncc4)cc3)n2)c(-c2cccnc2)n1` [Example 134, 4-(1-Ethyl-3-(pyridin-3-yl)-1H-pyrazol-4-yl)-N-(4-(pyridin-4-yl)phenyl)pyrimidin-2-amine], 0.0218 µM.

In the case of `FC(F)(F)Cn1cc(-c2ccnc(Nc3ccc(N4CCNCC4)cc3)n2)c(-c2cccnc2)n1` [Example 136, N-(4-(piperazin-1-yl)phenyl)-4-(3-(pyridin-3-yl)-1-(2,2,2-trifluoroethyl)-1H-pyrazol-4-yl)pyrimidin-2-amine], the 50% inhibitory concentration (IC50) came out at 0.0133 µM.

On to `c1ccc(Cn2cc(-c3ccnc(Nc4ccc(N5CCNCC5)cc4)n3)c(-c3cccnc3)n2)nc1` [Example 140, N-(4-(Piperazin-1-yl)phenyl)-4-(1-(pyridin-2-ylmethyl)-3-(pyridin-3-yl)-1H-pyrazol-4-yl)pyrimidin-2-amine], for which the half-inhibitory concentration (IC50) came to 0.0319 µM.

As to `c1cncc(Cn2cc(-c3ccnc(Nc4ccc(N5CCNCC5)cc4)n3)c(-c3cccnc3)n2)c1` [Example 141, N-(4-(Piperazin-1-yl)phenyl)-4-(3-(pyr-3-yl)-1-(pyridin-3-ylmethyl)-1H-pyrazol-4-yl)pyrimidin-2-amine], the IC50 was 0.0552 µM. On to `CCn1cc(-c2ccnc(Nc3ccc(OC4CNC4)cc3)n2)c(-c2cccnc2)n1` [Example 145, N-(4-(Azetidin-3-yloxy)phenyl)-4-(1-ethyl-3-(pyridin-3-yl)-1H-pyrazol-4-yl)pyrimidin-2-amine], for which the IC50 was determined as 0.0164 µM. Still for that read-out and setting: the result for `CCn1cc(-c2ccnc(Nc3ccc(N4CCC(N)CC4)cc3)n2)c(-c2cccnc2)n1` [Example 147, N-(4-(4-Aminopiperidin-1-yl)phenyl)-4-(1-ethyl-3-(pyridin-3-yl)-1H-pyrazol-4-yl)pyrimidin-2-amine] reads 0.0141 µM. Still for that read-out and setting: the result for `CCn1cc(-c2ccnc(Nc3cc(F)c(N4CCNCC4)c(F)c3)n2)c(-c2cccnc2)n1` [Example 153, N-(3,5-Difluoro-4-(piperazin-1-yl)phenyl)-4-(1-ethyl-3-(pyridin-3-yl)-1H-pyrazol-4-yl)pyrimidin-2-amine] reads 0.0065 µM; that for `CCn1cc(-c2ccnc(Nc3ccc(N4CCNCC4)c(C)c3)n2)c(-c2cccnc2)n1` [Example 154, 4-(1-Ethyl-3-(pyridin-3-yl)-1H-pyrazol-4-yl)-N-(3-methyl-4-(piperazin-1-yl)phenyl)pyrimidin-2-amine], 0.007 µM; that for `N#Cc1ccccc1Cn1cc(-c2ccnc(Nc3ccc(N4CCNCC4)cc3)n2)c(-c2cccnc2)n1` [Example 157, 2-((4-(2-((4-(Piperazin-1-yl)phenyl)amino)pyrimidin-4-yl)-3-(pyridin-3-yl)-1H-pyrazol-1-yl)methyl)benzonitrile], 0.0197 µM.

Consider `CCn1cc(-c2ccnc(Nc3cccc(N4CCNCC4)c3)n2)c(-c2cccnc2)n1` [Example 158, 4-(1-Ethyl-3-(pyridin-3-yl)-1H-pyrazol-4-yl)-N-(3-(piperazin-1-yl)phenyl)pyrimidin-2-amine], for which the IC50 stood at 0.0185 µM. Still for that read-out and setting: the result for `CCn1cc(-c2ccnc(Nc3ccc(CCN4CCNCC4)cc3)n2)c(-c2cccnc2)n1` [Example 159, 4-(1-Ethyl-3-(pyridin-3-yl)-1H-pyrazol-4-yl)-N-(4-(2-(piperazin-1-yl)ethyl)phenyl)-pyrimidin-2-amine] reads 0.0152 µM; that for `CCn1cc(-c2ccnc(Nc3ccc(N4CCC[C@H](N)C4)cc3)n2)c(-c2cccnc2)n1` [Example 160, (S)-N-(4-(3-Aminopiperidin-1-yl)phenyl)-4-(1-ethyl-3-(pyridin-3-yl)-1H-pyrazol-4-yl)pyrimidin-2-amine], 0.0158 µM.

Broadly, the IC50 is the concentration that gives 50% inhibition.
